pIC50: −log10 of the molar value.
Columns and labels:
[1] = biological target: T1, ALK tyrosine kinase receptor (Homo sapiens, UniProt Q9UM73); assay: Inhibition of human ALK expressed in baculovirus using recombinant GST PLC-gamma as substrate assessed as phosphorylation of the substrate after 15 mins by TRF assay
[2] = Half life in human liver microsomes by LC/MS/MS analysis; type: ADME
[3] = Half life in rat liver microsomes by LC/MS/MS analysis; type: ADME
Insulin receptor = Insulin receptor (Homo sapiens, UniProt P06213)
Description: Inhibition of recombinant human INSR expressed in baculovirus using ATP as substrate after 15 mins by TRF assay

[4] = Drug level in human liver microsomes treated with (1S,2S,3R,4R)-3-(5-chloro-2-((S)-1-methoxy-7-morpholino-6,7,8,9-tetrahydro-5H-benzo[7]annulen-2-ylamino)pyrimidin-4-ylamino)bicyclo[2.2.1]hept-5-ene-2-carboxamide at 10 uM after 120 mins in presence of NADPH by LC/MS/MS analysis; type: ADME; conditions: 2 h
[5] = Drug level in rat liver microsomes treated with (1S,2S,3R,4R)-3-(5-chloro-2-((S)-1-methoxy-7-morpholino-6,7,8,9-tetrahydro-5H-benzo[7]annulen-2-ylamino)pyrimidin-4-ylamino)bicyclo[2.2.1]hept-5-ene-2-carboxamide at 10 uM after 120 mins in presence of NADPH by LC/MS/MS analysis; type: ADME; conditions: 2 h
[6] = biological target: T1, ALK tyrosine kinase receptor; assay: Inhibition of NPM-ALK phosphorylation in human SUP-M2 cells after 2 to 3 hrs by ELISA; type: cell-based
Target sequence in this assay (Q9UM73 19-1620 limits assumed): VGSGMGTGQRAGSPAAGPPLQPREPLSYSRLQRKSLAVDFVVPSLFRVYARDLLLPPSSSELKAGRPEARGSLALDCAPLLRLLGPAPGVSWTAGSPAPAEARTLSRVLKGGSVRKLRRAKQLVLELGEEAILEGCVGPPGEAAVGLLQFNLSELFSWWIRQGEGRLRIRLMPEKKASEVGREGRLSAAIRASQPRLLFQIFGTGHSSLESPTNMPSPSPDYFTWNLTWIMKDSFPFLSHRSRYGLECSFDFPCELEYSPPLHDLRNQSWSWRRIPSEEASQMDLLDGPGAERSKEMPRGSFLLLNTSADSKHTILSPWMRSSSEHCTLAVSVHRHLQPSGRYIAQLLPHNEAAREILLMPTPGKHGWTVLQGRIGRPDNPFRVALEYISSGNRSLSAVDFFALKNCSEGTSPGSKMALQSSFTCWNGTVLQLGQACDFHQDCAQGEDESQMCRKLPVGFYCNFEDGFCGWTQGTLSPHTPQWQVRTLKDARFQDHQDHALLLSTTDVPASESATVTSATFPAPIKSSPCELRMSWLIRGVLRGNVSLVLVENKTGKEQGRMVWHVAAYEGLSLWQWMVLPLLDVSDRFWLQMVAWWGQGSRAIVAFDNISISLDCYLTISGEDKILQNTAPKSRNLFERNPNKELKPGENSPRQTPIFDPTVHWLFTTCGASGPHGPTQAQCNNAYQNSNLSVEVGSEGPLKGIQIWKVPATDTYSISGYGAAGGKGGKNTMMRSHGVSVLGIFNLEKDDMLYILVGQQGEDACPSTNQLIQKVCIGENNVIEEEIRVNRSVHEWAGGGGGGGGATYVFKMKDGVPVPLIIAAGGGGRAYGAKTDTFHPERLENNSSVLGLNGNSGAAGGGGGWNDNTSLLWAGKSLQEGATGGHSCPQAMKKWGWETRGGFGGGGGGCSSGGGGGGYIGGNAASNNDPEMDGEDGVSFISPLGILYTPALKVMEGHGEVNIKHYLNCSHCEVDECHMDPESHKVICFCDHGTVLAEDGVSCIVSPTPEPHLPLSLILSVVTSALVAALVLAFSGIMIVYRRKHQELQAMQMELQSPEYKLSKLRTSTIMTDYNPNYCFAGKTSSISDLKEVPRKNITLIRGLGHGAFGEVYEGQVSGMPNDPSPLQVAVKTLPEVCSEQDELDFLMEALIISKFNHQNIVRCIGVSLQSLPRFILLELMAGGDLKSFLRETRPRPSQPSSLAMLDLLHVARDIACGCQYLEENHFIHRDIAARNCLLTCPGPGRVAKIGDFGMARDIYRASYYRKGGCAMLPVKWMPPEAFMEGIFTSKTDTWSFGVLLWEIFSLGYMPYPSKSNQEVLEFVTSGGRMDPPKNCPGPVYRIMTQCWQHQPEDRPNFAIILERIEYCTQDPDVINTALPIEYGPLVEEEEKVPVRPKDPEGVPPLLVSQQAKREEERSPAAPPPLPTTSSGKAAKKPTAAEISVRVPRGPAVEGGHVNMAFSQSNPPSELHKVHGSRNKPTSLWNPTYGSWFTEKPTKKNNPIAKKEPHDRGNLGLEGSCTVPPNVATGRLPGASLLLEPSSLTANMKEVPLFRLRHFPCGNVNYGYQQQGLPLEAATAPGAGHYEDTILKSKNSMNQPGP

[7] = AUC (0 to infinity) in Sprague-Dawley rat at 5 mg/kg, po by LC/MS/MS analysis; type: ADME, organism-based; parameters: dose 5 mg/kg, time infinity, route oral; conditions: in vivo
[8] = Oral bioavailability in Sprague-Dawley rat at 5 mg/kg by LC/MS/MS analysis; type: ADME, organism-based; conditions: in vivo
Cytochrome P450 1A2 = biological target: T2, Cytochrome P450 1A2 (Homo sapiens, UniProt P05177); assay: Inhibition of CYP1A2 in human liver microsomes using phenacetin as substrate in presence of NADPH by LC/MS/MS analysis; type: ADME
T2 sequence (P05177 whole entry): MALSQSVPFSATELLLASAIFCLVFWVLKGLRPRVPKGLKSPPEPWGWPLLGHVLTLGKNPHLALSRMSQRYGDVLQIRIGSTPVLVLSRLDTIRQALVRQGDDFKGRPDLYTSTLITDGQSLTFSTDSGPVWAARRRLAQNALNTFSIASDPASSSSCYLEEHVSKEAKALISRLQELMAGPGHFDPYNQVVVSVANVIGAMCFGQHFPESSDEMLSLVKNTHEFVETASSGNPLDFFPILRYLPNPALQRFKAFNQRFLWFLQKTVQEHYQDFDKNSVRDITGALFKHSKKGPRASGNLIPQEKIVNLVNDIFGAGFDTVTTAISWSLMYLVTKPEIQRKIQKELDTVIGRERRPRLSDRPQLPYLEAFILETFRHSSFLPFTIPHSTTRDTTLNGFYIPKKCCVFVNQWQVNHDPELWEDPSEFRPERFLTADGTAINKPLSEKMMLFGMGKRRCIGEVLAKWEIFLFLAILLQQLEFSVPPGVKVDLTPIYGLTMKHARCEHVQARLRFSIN

Cytochrome P450 2C9 = Cytochrome P450 2C9 (Homo sapiens, UniProt P11712); assay: Inhibition of CYP2C9 in human liver microsomes using diclofenac as substrate in presence of NADPH by LC/MS/MS analysis; type: ADME
[9] = Half life in CD-1 mouse liver microsomes by LC/MS/MS analysis; type: ADME
[10] = Half life in cynomolgus monkey liver microsomes by LC/MS/MS analysis; type: ADME, Macaca fascicularis
Cytochrome P450 2D6 = Cytochrome P450 2D6 (Homo sapiens, UniProt P10635); assay: Inhibition of CYP2D6 in human liver microsomes using dextromethorphan as substrate in presence of NADPH by LC/MS/MS analysis; type: ADME
[11] = biological target: Voltage-gated inwardly rectifying potassium channel KCNH2 (Homo sapiens, UniProt Q12809); assay: Inhibition of human ERG
Cytochrome P450 3A4 = Cytochrome P450 3A4 (Homo sapiens, UniProt P08684); assay: Inhibition of CYP3A4 in human liver microsomes using testosterone/midazolam as substrate in presence of NADPH by LC/MS/MS analysis; type: ADME
Cytochrome P450 2C19 = Cytochrome P450 2C19 (Homo sapiens, UniProt P33261); assay: Inhibition of CYP2C19 in human liver microsomes using S-mephenytoin as substrate in presence of NADPH by LC/MS/MS analysis; type: ADME
[12] = Apparent permeability from apical to basolateral side in human Caco2 cells; type: ADME, cell-based; conditions: Caco-2
[13] = Drug metabolism in cynomolgus monkey liver microsomes assessed as methyl group loss from N-methylmethanesulfonamide; type: ADME, Macaca fascicularis
[14] = Drug metabolism in human liver microsomes assessed as methyl group loss from N-methylmethanesulfonamide; type: ADME
[15] = Drug metabolism in mouse liver microsomes assessed as methyl group loss from N-methylmethanesulfonamide; type: ADME
[16] = AUC (0 to 6 hrs) in rat by LC/MS/MS analysis; type: ADME; parameters: time < 6 hr; conditions: in vivo
[17] = Drug metabolism in rat liver microsomes assessed as methyl group loss from N-methylmethanesulfonamide; type: ADME

Cytochrome P450 2C9, sequence (P11712 whole entry): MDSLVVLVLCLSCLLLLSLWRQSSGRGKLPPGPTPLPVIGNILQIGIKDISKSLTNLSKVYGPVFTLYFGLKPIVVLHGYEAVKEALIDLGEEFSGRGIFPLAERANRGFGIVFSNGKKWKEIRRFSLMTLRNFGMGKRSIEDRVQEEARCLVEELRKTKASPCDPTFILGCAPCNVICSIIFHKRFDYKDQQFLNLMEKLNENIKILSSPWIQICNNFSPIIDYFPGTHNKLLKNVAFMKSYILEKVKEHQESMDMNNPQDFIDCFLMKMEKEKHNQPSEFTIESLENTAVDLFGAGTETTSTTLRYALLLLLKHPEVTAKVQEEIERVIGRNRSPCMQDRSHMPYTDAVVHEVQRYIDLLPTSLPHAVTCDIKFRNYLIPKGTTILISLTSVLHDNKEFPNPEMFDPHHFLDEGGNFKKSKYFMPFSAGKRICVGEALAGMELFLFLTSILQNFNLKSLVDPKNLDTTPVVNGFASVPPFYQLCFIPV
Voltage-gated inwardly rectifying potassium channel KCNH2, sequence (Q12809 whole entry): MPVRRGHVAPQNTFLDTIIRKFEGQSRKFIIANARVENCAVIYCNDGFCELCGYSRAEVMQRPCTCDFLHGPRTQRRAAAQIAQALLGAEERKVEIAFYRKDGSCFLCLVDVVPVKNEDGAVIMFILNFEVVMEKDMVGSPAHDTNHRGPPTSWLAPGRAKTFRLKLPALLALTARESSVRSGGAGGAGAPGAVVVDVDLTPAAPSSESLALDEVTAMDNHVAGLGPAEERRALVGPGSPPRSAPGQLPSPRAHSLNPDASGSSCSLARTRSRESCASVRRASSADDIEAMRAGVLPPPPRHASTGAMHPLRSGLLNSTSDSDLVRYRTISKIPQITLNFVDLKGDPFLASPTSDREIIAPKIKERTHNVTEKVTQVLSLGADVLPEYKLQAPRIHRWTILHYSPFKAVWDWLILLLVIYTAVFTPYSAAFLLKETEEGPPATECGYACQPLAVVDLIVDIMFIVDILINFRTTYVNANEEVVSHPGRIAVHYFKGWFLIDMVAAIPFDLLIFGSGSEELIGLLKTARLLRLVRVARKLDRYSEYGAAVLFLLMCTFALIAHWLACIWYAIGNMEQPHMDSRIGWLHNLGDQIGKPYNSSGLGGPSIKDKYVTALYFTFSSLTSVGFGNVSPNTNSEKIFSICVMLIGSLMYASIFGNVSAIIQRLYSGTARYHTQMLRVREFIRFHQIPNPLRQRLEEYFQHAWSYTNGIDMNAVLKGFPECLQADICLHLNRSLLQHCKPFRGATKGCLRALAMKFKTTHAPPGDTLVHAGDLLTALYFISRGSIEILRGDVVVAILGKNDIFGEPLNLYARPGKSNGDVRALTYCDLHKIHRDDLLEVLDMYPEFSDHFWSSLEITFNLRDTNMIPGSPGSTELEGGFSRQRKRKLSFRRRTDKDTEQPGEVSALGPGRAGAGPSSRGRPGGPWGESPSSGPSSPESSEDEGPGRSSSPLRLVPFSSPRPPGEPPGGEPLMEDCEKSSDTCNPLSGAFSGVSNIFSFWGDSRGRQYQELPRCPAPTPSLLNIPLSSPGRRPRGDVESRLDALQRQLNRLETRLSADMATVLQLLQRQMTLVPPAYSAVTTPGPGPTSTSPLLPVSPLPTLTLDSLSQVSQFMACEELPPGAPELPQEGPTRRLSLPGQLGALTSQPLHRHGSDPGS
Cytochrome P450 2D6, sequence (P10635 whole entry): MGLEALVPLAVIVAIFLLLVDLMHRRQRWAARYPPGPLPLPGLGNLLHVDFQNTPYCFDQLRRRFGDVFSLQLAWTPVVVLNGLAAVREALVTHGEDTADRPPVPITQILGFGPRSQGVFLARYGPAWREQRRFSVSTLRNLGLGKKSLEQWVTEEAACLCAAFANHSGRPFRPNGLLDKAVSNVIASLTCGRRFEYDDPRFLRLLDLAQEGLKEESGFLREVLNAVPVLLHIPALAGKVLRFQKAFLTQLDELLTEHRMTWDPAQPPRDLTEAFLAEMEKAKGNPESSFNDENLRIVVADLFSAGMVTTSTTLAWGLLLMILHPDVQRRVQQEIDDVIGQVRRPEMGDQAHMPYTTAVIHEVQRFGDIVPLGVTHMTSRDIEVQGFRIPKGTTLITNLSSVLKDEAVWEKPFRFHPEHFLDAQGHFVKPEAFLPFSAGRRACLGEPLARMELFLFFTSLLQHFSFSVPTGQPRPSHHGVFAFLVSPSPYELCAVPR
Cytochrome P450 2C19, sequence (P33261 whole entry): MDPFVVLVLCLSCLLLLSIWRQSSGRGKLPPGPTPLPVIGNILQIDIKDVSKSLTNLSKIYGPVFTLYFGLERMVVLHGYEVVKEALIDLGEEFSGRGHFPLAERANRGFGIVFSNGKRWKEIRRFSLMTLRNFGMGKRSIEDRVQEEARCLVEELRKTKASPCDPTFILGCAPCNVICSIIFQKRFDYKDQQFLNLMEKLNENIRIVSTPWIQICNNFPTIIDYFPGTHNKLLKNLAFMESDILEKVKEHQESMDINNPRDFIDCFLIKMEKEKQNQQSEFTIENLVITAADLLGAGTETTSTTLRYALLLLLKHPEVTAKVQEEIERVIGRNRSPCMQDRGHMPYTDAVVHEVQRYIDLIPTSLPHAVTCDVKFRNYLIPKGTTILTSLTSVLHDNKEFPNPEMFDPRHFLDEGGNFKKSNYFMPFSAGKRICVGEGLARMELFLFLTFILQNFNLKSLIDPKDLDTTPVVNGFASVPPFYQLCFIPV
Cytochrome P450 3A4, sequence (P08684 whole entry): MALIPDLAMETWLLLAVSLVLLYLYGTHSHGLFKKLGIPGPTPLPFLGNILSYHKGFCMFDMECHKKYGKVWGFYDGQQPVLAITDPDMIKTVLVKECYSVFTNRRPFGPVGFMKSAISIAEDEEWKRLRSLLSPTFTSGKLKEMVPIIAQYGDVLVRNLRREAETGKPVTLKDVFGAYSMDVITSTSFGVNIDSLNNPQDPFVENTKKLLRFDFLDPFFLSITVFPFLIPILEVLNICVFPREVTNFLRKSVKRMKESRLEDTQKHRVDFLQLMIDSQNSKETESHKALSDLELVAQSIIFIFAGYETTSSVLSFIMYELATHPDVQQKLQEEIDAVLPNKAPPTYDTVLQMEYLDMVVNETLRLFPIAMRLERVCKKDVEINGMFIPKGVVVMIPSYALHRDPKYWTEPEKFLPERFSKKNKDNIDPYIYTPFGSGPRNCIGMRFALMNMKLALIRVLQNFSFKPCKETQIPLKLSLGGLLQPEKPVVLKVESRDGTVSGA

SMILES | pIC50 [1] | half-life [2] | half-life [3] | pIC50 [6] | bioavailability [8] | pIC50 [11] | other results
COc1c(Nc2ncc(Cl)c(N[C@H]3[C@@H](C(N)=O)[C@@H]4C=C[C@H]3C4)n2)ccc2c1CCC[C@@H](N1CCOCC1)C2 | 8.82 | 5 min | 5 min | – | – | – | –
COc1c(Nc2ncc(Cl)c(N[C@H]3[C@@H](C(N)=O)[C@@H]4C=C[C@H]3C4)n2)ccc2c1CC(N1CCOCC1)CCC2 (stereo partly specified) | 7.41 | – | – | – | – | – | pIC50 (Insulin receptor): < 5.00
COc1c(Nc2ncc(Cl)c(N[C@H]3[C@@H](C(N)=O)[C@H]4C[C@@H]3C3OC34)n2)ccc2c1CC[C@@H](N1CCOCC1)CC2 (stereo partly specified) | – | – | – | – | – | – | Drug metabolism [4]: Metabolite_Detected; Drug metabolism [5]: Metabolite_Detected
COc1c(Nc2ncc(Cl)c(N[C@H]3[C@@H](C(N)=O)[C@@H]4C=C[C@H]3C4)n2)ccc2c1CCC[C@H](N1CCN(C)CC1)C2 | 7.85 to 8.05 | 15 min | 40 min | 6.70 | 11% | 5.04 | AUC(0-inf) [7]: 4.41 µg·h/mL; pIC50 (Cytochrome P450 1A2): < 5.00; pIC50 (Cytochrome P450 2C9): < 5.00; half-life [9]: 40 min; half-life [10]: 9 min; pIC50 (Cytochrome P450 2D6): < 5.00; pIC50 (Cytochrome P450 3A4): < 5.00; pIC50 (Cytochrome P450 2C19): < 5.00
COc1c(Nc2ncc(Cl)c(N[C@H]3[C@@H](C(N)=O)[C@@H]4C=C[C@H]3C4)n2)ccc2c1CCC[C@@H](N1CCN(CCO)CC1)C2 | 8.20 | – | – | 7.30 | – | < 5.00 | –
COc1c(Nc2ncc(Cl)c(N[C@H]3[C@@H](C(N)=O)[C@@H]4C=C[C@H]3C4)n2)ccc2c1CCC[C@H](N1CCOCC1)C2 | 8.15 | 6 min | 5 min | – | – | – | –
COCCNC1CCCc2c(ccc(Nc3ncc(Cl)c(N[C@H]4[C@@H](C(N)=O)[C@@H]5C=C[C@H]4C5)n3)c2OC)C1 (stereo partly specified) | 8.15 | 15 min | 31 min | – | – | – | –
CNC(=O)c1ccccc1Nc1nc(Nc2ccc3c(c2OC)CCC[C@@H](N2CCN(CCO)CC2)C3)ncc1Cl | – | 40 min | 40 min | – | 18% | < 5.00 | AUC(0-inf) [7]: 1.2 µg·h/mL; pIC50 (Cytochrome P450 1A2): < 5.25; pIC50 (Cytochrome P450 2C9): < 5.25; Papp A→B [12]: > 10 nm/s; half-life [9]: 40 min; half-life [10]: 24 min; pIC50 (Cytochrome P450 2D6): < 5.25; pIC50 (Cytochrome P450 2C19): < 5.25
COc1c(Nc2ncc(Cl)c(N[C@H]3[C@@H](C(N)=O)[C@@H]4C=C[C@H]3C4)n2)ccc2c1CCC[C@H](N1CCN(CCO)CC1)C2 | 8.24 | 18 min | 15 min | 7.52 | 10% | < 5.00 | –
CNC(=O)c1ccccc1Nc1nc(Nc2ccc3c(c2OC)CCCC(N2CCN(CCO)CC2)C3)ncc1Cl (racemic) | – | > 40 min | > 40 min | – | 47% | ≤ 5.00 | –
COc1c(Nc2ncc(Cl)c(Nc3ccccc3S(=O)(=O)N(C)C)n2)ccc2c1CCCC(N1CCN(CCO)CC1)C2 (racemic) | 8.40 | 18 min | 40 min | 7.40 | 28% | 6.62 | –
COc1c(Nc2ncc(Cl)c(Nc3ccccc3N3CCCS3(=O)=O)n2)ccc2c1CCCC(N1CCN(CCO)CC1)C2 (racemic) | 8.21 | 16 min | 38 min | 7.22 | 48% | – | –
COc1c(Nc2ncc(Cl)c(Nc3ccccc3-n3cccn3)n2)ccc2c1CCCC(N1CCN(CCO)CC1)C2 (racemic) | 8.64 | 40 min | 40 min | 7.70 | 19% | 5.43 | –
COc1c(Nc2ncc(Cl)c(Nc3ccccc3N(C)S(C)(=O)=O)n2)ccc2c1CCCC(N1CCN(CCO)CC1)C2 (racemic) | 8.70 | 13 min | 37 min | 7.52 | 38% | – | Drug metabolism [13]: Metabolite_Detected; Drug metabolism [14]: Metabolite_Detected; Drug metabolism [15]: Metabolite_Detected; half-life [9]: 37 min; half-life [10]: 8 min; AUC(0-t) at 6 h [16]: 3.96 µg·h/mL; Drug metabolism [17]: Metabolite_Detected
COc1ccccc1Nc1nc(Nc2ccc3c(c2OC)CCCC(N2CCN(CCO)CC2)C3)ncc1Cl (racemic) | 7.36 | – | – | – | – | – | –
COc1c(Nc2ncc(Cl)c(Nc3ccccc3NS(C)(=O)=O)n2)ccc2c1CCCC(N1CCN(CCO)CC1)C2 (racemic) | 7.74 | 40 min | 40 min | – | – | – | pIC50 (Insulin receptor): < 5.70
COc1c(Nc2ncc(Cl)c(Nc3ccccc3-c3nccn3C)n2)ccc2c1CCCC(N1CCN(CCO)CC1)C2 (racemic) | 8.30 | 18 min | 22 min | 7.30 | 19% | – | –
COc1c(Nc2ncc(Cl)c(Nc3ccccc3N(C)S(C)(=O)=O)n2)ccc2c1CCCC(N1CCN(C)CC1)C2 (racemic) | 8.64 | 12 min | 33 min | 7.40 | 9% | – | AUC(0-t) at 6 h [16]: 1.3 µg·h/mL
COc1c(Nc2ncc(Cl)c(N[C@H]3[C@@H](C(N)=O)[C@@H]4C=C[C@H]3C4)n2)ccc2c1CCCC(N1CCN(C)CC1)C2 (single isomer, unassigned) | 8.05 | 11 min | 39 min | 6.70 | 11% | 5.10 | AUC(0-inf) [7]: 5.53 µg·h/mL; pIC50 (Cytochrome P450 1A2): < 5.00; pIC50 (Cytochrome P450 2C9): < 5.00; half-life [9]: 40 min; half-life [10]: 7 min; pIC50 (Cytochrome P450 2D6): < 5.00; pIC50 (Cytochrome P450 3A4): < 5.00; pIC50 (Cytochrome P450 2C19): < 5.00
